Source: paper PMC6943742, “Peptide/Peptoid Hybrid Oligomers: The Influence of Hydrophobicity and Relative Side-Chain Length on Antibacterial Activity and Cell Selectivity” (Molecules, 2019)
≈ marks a conversion by molar mass, not a printed value. Non-standard residues stand in square brackets, D forms with d. Residues, ends and D or L forms follow the SMILES beside them. N(5-aminopentyl)Gly = NCCCCCNCC(=O)O; Gly(N-2-aminoethyl) = NCCNCC(=O)O; Gly(N(CH2)3NH2) = NCCCNCC(=O)O; hLys = NCCCCC[C@H](N)C(=O)O; Nphe = O=C(O)CNCc1ccccc1; Nlys = NCCCCNCC(=O)O

Experiments:
[1] = Relative hydrophobicity by RP-HPLC (% MeCN at peak elution); assay type: physicochemical; conditions: RP-HPLC gradient 0 → 60% B during 10 min; % MeCN at peak elution calculated from retention time
Method: The relative hydrophobicity of each peptidomimetic was measured by reverse-phase high-performance liquid chromatography (RP-HPLC). Typically, the RP-HPLC retention time (or percentage acetonitrile at peak elution) constitutes the preferred measure that allows for comparison of relative hydrophobicity, while log P values of polycationic peptides or peptidomimetics normally are considered unsuitable due to the extreme hydrophilic nature of such compounds [11, 45, 57, 58, 59, 60]. […] For both subgroups III (with cationic amino acid residues and the peptoid analogue of Phe, NPhe, i.e., 9–12) and IV (with cationic amino acid residues and the peptoid analogue of hPhe, NhPhe, i.e., 13–16) only minor differences in hydrophobicity were seen. These observations infer that, when the cationic residues are of a peptoid nature, the side-chain length of these has a […] influence on the hydrophobicity. […] Thus, introduction of additional six methylene groups results, as expected, in increased hydrophobicity.
Starting materials and solvents were purchased from commercial suppliers (Iris Biotech, Markredwitz, Germany; Fluorochem, Hadfield, United Kingdom; and Merck, Darmstadt, Germany) and used without further purification. Water used for analytical and preparative high-performance liquid chromatography (HPLC) was filtered through a 0.22-μm Millipore membrane filter. Purity and retention time of each peptidomimetic were determined by analytical UHPLC by using a Phenomenex Luna C18(2) HST column (100 mm × 3 mm; particle size: 2.5 μm; pore size: 100 Å) on a Shimadzu Prominence and Shimadzu Nexera system using an aqueous acetonitrile (MeCN) gradient with 0.1% trifluoroacetic acid (TFA) added (eluent A: 5:95 MeCN–H2O + 0.1% TFA, eluent B: 95:5 MeCN–H2O + 0.1% TFA); a flow rate of 0.5 mL/min was used. For elution of peptidomimetics, a linear gradient of 0% to 60% B during 10 min was used with UV detection at λ = 220 nm. […] For each peptidomimetic, the percentage of MeCN at peak elution was calculated from the retention time by using the following formula:(1) %MeCN = 0.95 (0.6Rt/10 min.) + 0.05 (1−0.6Rt/10 min.).

A. baumannii ATCC 19606 = assay type: cell-based; conditions: ATCC 19606, 20 h
Method: (§1) MIC values were evaluated by using the modified Hancock lab protocol in non-binding polystyrene microtitre plates, with bacterial suspensions of ∼2 × 10^5 CFU/mL in Mueller-Hinton broth (Difco, Sparks MD, USA), with Mg^2+ and Ca^2+ concentrations of 4 mg/L each. The compounds were dissolved in H2O and diluted in 0.01% acetic acid, 0.2% BSA (final concentration). Aliquots of 11 µL of 10 × test compounds were then transferred to the appropriate wells with bacterial suspensions. For preparation and transfer of the solutions of the compounds, low-binding sterile tubes and tips (Axygen, Union City CA, USA) were used. After 20 h incubation of covered plates at 35 °C (±2 °C) with circular shaking at 220 rpm, the MICs were read. The antibacterial activity of peptidomimetics was tested against E. coli ATCC 25922, K. pneumoniae ATCC 13883, P. aeruginosa ATCC 27853, P. aeruginosa PAO1, A. baumannii ATCC 19606, S. aureus ATCC 29213, and E. faecalis ATCC 29212.

E. coli ATCC 25922 = assay type: cell-based; conditions: ATCC 25922, 20 h
Method: as §1

E. faecalis ATCC 29212 = assay type: cell-based; conditions: ATCC 29212, 20 h
Method: as §1

K. pneumoniae ATCC 13883 = assay type: cell-based; conditions: ATCC 13883, 20 h
Method: as §1

P. aeruginosa ATCC 27853 = assay type: cell-based; conditions: ATCC 27853, 20 h
Method: as §1

P. aeruginosa PAO1 = assay type: cell-based; conditions: PAO1, 20 h
Method: as §1

S. aureus ATCC 29213 = assay type: cell-based; conditions: ATCC 29213, 20 h
Method: as §1

in vitro [2] = assay type: cell-based; conditions: human
Method: (§2) Side effects affecting cell viability were estimated on the HepG2 cell line ATCC HB-8065. In brief, HepG2 cells were seeded in flat-bottomed 96-well plates at a concentration of 5000 cells per well. At 80−90% confluency, the cells were incubated for 24 h in a humidified incubator (5% CO2, 37 °C). The medium was removed, and the cells were incubated for 48 h in a humidified incubator (5% CO2, 37 °C) with compounds in two-fold serial dilutions. An MTT assay was then performed as previously described. In brief, after incubation with the test compounds, the culture medium was removed and fresh medium with 0.2 mg/mL MTT was added in each well of the plate. After incubation (3 h, 37 °C, 5% CO2), the medium with MTT was removed, and 200 μL dimethyl sulfoxide were added at once to each sample. Absorbance of MTT was measured using spectrophotometer TECAN Infinite M1000 at 540 nm. The relative viability was calculated by using the formula: ODtreated cells × 100/ODcontrol cells. The IC50 values are calculated by using the program Graph Pad Prism® 5.0. For all compounds, the test range was 10–1280 μg/mL.

[3] = test system: HepG2 cell line ATCC HB-8065; assay: in vitro; assay type: cell-based; conditions: 48 h
Method: as §2

in vitro [4] = assay type: cell-based; conditions: human, Hemolytic Activity (percentage hemolysis)
Method: The lysis of human red blood cells was measured as previously described, with modifications. In brief, freshly drawn human red blood cells (hRBCs) were washed three times with PBS buffer and centrifuged two times for 5 min at 2500 rpm. A two-fold serial dilution of peptidomimetics in PBS buffer was added to each well in a sterile polypropylene V-bottom 96-well plate to the total volume of 75 μL. A 0.5% v/v hRBC suspension (75 μL in PBS buffer) was added to each well to reach a final volume of 150 μL in each well. The plate was incubated (37 °C) for 60 min, and then the cells were subsequently pelleted by centrifugation at 1000 rpm for 5 min. The supernatants (50 μL) were transferred to clear, flat-bottomed plastic 96-well plates. The concentration of hemoglobin was detected by measuring the OD at 405 nm. The OD of cells incubated with 0.1% SDS defined 100% hemolysis, while the OD of cells incubated with PBS buffer defined 0% hemolysis. The concentrations tested were 200, 400, and 800 μg/mL (only average values for the highest concentration are stated in Table 2).

[5] = design: method as in PMID 29198866; conditions: peptoid oligomers; cited from earlier work
human red blood cells = conditions: cited from earlier work

Compound	Hydrophobicity (% MeCN at elution) [1] [%]	MIC (A. baumannii ATCC 19606) [µg/mL]	MIC (E. coli ATCC 25922) [µg/mL]	MIC (E. faecalis ATCC 29212) [µg/mL]	MIC (K. pneumoniae ATCC 13883) [µg/mL]	MIC (P. aeruginosa ATCC 27853) [µg/mL]	MIC (P. aeruginosa PAO1) [µg/mL]	MIC (S. aureus ATCC 29213) [µg/mL]	viability at 48 h, 1280 µg/mL (in vitro [2]) [%]	IC50 for inhibiting growth of HepG2 cells [3] [µg/mL]	hemolysis at 60 min, 800 µg/mL (in vitro [4]) [%]	Hydrophobicity (% MeCN at peak elution) [5] [% MeCN]	Concentration resulting in 10% hemolysis (human red blood cells) [µM]
NCCNCC(=O)N[C@@H](Cc1ccccc1)C(=O)N(CCN)CC(=O)N[C@@H](Cc1ccccc1)C(=O)N(CCN)CC(=O)N[C@@H](Cc1ccccc1)C(=O)N(CCN)CC(=O)N[C@@H](Cc1ccccc1)C(=O)N(CCN)CC(=O)N[C@@H](Cc1ccccc1)C(=O)N(CCN)CC(=O)N[C@@H](Cc1ccccc1)C(N)=O [Peptidomimetic 1] (H-[Gly(N-2-aminoethyl)]F[Gly(N-2-aminoethyl)]F[Gly(N-2-aminoethyl)]F[Gly(N-2-aminoethyl)]F[Gly(N-2-aminoethyl)]F[Gly(N-2-aminoethyl)]F-NH2)	37.5	>64	4 to 8	>64	64 (≈ 42.6 µM)	64 (≈ 42.6 µM)	>64	>64	49	1280	7	–	–
NCCCNCC(=O)N[C@@H](Cc1ccccc1)C(=O)N(CCCN)CC(=O)N[C@@H](Cc1ccccc1)C(=O)N(CCCN)CC(=O)N[C@@H](Cc1ccccc1)C(=O)N(CCCN)CC(=O)N[C@@H](Cc1ccccc1)C(=O)N(CCCN)CC(=O)N[C@@H](Cc1ccccc1)C(=O)N(CCCN)CC(=O)N[C@@H](Cc1ccccc1)C(N)=O [Peptidomimetic 2] (H-[Gly(N(CH2)3NH2)]F[Gly(N(CH2)3NH2)]F[Gly(N(CH2)3NH2)]F[Gly(N(CH2)3NH2)]F[Gly(N(CH2)3NH2)]F[Gly(N(CH2)3NH2)]F-NH2)	35.7	>64	8 to 16	>64	64 (≈ 40.4 µM)	>64	>64	>64	62	>1280	5	–	–
NCCCCNCC(=O)N[C@@H](Cc1ccccc1)C(=O)N(CCCCN)CC(=O)N[C@@H](Cc1ccccc1)C(=O)N(CCCCN)CC(=O)N[C@@H](Cc1ccccc1)C(=O)N(CCCCN)CC(=O)N[C@@H](Cc1ccccc1)C(=O)N(CCCCN)CC(=O)N[C@@H](Cc1ccccc1)C(=O)N(CCCCN)CC(=O)N[C@@H](Cc1ccccc1)C(N)=O [Peptidomimetic 3] (H-[Nlys]F[Nlys]F[Nlys]F[Nlys]F[Nlys]F[Nlys]F-NH2)	35.6	>64	8 to 16	>64	32 (≈ 19.2 µM)	>64	>64	>64	52	1280	8	–	–
NCCCCCNCC(=O)N[C@@H](Cc1ccccc1)C(=O)N(CCCCCN)CC(=O)N[C@@H](Cc1ccccc1)C(=O)N(CCCCCN)CC(=O)N[C@@H](Cc1ccccc1)C(=O)N(CCCCCN)CC(=O)N[C@@H](Cc1ccccc1)C(=O)N(CCCCCN)CC(=O)N[C@@H](Cc1ccccc1)C(=O)N(CCCCCN)CC(=O)N[C@@H](Cc1ccccc1)C(N)=O [Peptidomimetic 4] (H-[N(5-aminopentyl)Gly]F[N(5-aminopentyl)Gly]F[N(5-aminopentyl)Gly]F[N(5-aminopentyl)Gly]F[N(5-aminopentyl)Gly]F[N(5-aminopentyl)Gly]F-NH2)	36.6	64 (≈ 36.5 µM)	4 to 8	>64	64 (≈ 36.5 µM)	>64	>64	>64	49	1280	9	–	–
NCCCC[C@H](NC(=O)CN(Cc1ccccc1)C(=O)[C@H](CCCCN)NC(=O)CN(Cc1ccccc1)C(=O)[C@H](CCCCN)NC(=O)CN(Cc1ccccc1)C(=O)[C@H](CCCCN)NC(=O)CN(Cc1ccccc1)C(=O)[C@H](CCCCN)NC(=O)CN(Cc1ccccc1)C(=O)[C@@H](N)CCCCN)C(=O)N(CC(N)=O)Cc1ccccc1 [Peptidomimetic 11] (H-K[Nphe]K[Nphe]K[Nphe]K[Nphe]K[Nphe]K[Nphe]-NH2)	36.9	>64	4 to 8	>64	64 (≈ 38.3 µM)	4 (≈ 2.4 µM)	8 to 16	>64	76	>1280	10	–	–
NCCCCC[C@H](NC(=O)CN(Cc1ccccc1)C(=O)[C@H](CCCCCN)NC(=O)CN(Cc1ccccc1)C(=O)[C@H](CCCCCN)NC(=O)CN(Cc1ccccc1)C(=O)[C@H](CCCCCN)NC(=O)CN(Cc1ccccc1)C(=O)[C@H](CCCCCN)NC(=O)CN(Cc1ccccc1)C(=O)[C@@H](N)CCCCCN)C(=O)N(CC(N)=O)Cc1ccccc1 [Peptidomimetic 12] (H-[hLys][Nphe][hLys][Nphe][hLys][Nphe][hLys][Nphe][hLys][Nphe][hLys][Nphe]-NH2)	38.0	–	2 (≈ 1.14 µM)	>64	>64	64 (≈ 36.5 µM)	64 (≈ 36.5 µM)	>64	47	1280	9	–	–
H-(NLys-Nspe-Nspe)4-NH2	–	–	–	–	–	–	–	–	–	–	–	53.6	9.1
